Laboratory results taken from US20180050993A1, “NOVEL FLUORINATED DERIVATIVES AS EGFR INHIBITORS USEFUL FOR TREATING CANCERS” (Trillium Therapeutics Inc., priority 2015, published 2018).
Where a name gives a salt, the structure may show the parent alone. Read-outs that look alike come from different tables or passages of the source.

How the values were obtained:
P-gp = target: T1, P-gp (Homo sapiens, UniProt P08183); experiment: Evaluation of P-gp efflux in Caco-2 cell monolayers; type: in vitro ADME;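 note: Caco-2 monolayers dosed apically or basolaterally with test compound at 5 µM in HBSS with HEPES and glucose, 37 °C, donor and receiver sampled after 120 min, LC/MS peak areas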
T1 construct: host or cells: Caco-2 (C2BBe1)
T1 sequence (P08183 whole entry): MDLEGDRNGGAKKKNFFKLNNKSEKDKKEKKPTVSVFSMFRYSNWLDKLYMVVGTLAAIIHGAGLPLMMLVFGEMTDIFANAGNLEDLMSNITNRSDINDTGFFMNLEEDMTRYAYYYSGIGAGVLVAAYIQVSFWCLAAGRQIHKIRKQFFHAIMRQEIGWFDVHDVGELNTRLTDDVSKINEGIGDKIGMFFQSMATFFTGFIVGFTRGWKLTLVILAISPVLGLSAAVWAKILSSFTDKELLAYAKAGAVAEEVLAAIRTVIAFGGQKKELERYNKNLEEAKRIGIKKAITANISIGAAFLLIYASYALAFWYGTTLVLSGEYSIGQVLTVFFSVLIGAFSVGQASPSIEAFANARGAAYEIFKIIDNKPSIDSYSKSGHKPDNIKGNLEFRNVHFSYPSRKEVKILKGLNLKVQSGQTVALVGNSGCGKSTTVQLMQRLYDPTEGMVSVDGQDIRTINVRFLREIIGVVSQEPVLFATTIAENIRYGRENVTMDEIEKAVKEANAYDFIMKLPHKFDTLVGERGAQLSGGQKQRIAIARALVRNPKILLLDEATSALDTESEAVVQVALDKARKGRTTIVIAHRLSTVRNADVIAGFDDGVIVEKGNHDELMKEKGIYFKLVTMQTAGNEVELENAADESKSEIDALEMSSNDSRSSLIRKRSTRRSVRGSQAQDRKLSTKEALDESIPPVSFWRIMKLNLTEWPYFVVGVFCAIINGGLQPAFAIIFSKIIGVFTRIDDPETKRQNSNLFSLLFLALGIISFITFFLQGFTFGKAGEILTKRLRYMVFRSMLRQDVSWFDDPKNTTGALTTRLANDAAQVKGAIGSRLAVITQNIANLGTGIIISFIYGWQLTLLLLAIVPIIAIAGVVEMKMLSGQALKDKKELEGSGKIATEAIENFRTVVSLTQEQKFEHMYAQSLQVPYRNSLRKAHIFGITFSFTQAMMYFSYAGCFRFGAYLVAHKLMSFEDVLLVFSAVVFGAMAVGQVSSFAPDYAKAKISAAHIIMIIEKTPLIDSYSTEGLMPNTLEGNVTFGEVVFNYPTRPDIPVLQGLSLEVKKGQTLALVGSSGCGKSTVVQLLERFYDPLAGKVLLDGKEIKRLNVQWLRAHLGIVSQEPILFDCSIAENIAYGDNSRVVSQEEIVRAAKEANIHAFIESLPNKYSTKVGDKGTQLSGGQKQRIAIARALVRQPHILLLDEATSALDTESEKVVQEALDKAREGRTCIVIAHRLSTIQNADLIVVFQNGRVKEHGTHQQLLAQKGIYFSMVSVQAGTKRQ

HCC827 = experiment: Comparison with 1st generation inhibitors against a lung cancer cell line (HCC827); type: cell-based; conditions: Homo sapiens, read-out: Biochemical IC50
MALME-3M = experiment: NCI screening panel, growth %; type: cell-based, human; conditions: Melanoma
Method: (§1) After 24 h, two plates of each cell line are fixed in situ with TCA, to represent a measurement of the cell population for each cell line at the time of drug addition (Tz). Experimental drugs are solubilised in dimethyl sulfoxide at 400-fold the desired final maximum test concentration and stored frozen prior to use. At the time of drug addition, an aliquot of frozen concentrate is thawed and diluted to twice the desired final maximum test concentration with complete medium containing 50 μg/ml gentamicin. Additional four, 10-fold or log serial dilutions are made to provide a total of five drug concentrations plus control. Aliquots of 100 μl of these different drug dilutions are added to the appropriate microtiter wells already containing 100 μl of medium, resulting in the required final drug concentrations.
(§2) Following drug addition, the plates are incubated for an additional 48 h at 37° C., 5% CO2, 95% air, and 100% relative humidity. For adherent cells, the assay is terminated by the addition of cold TCA (trichloroacetic acid). Cells are fixed in situ by the gentle addition of 50 μl of cold 50% (w/v) TCA (final concentration, 10% TCA) and incubated for 60 minutes at 4° C. The supernatant is discarded, and the plates are washed five times with tap water and air dried. Sulforhodamine B (SRB) solution (100 μl) at 0.4% (w/v) in 1% acetic acid is added to each well, and plates are incubated for 10 minutes at room temperature. After staining, unbound dye is removed by washing five times with 1% acetic acid and the plates are air dried. Bound stain is subsequently solubilised with 10 mM trizma base, and the absorbance is read on an automated plate reader at a wavelength of 515 nm. For suspension cells, the methodology is the same except that the assay is terminated by fixing settled cells at the bottom of the wells by gently adding 50 μl of 80% TCA (final concentration, 16% TCA). Using the seven absorbance measurements [time zero, […], control growth, (C), and test growth in the presence of drug at the five concentration levels (Ti)], the percentage growth is calculated at each of the drug concentration levels. Percentage growth inhibition is calculated as: [(Ti−Tz)/(C−Tz)]×100 for concentrations in which Ti>/=Tz and [(Ti−Tz)/Tz]×100 for concentrations in which Ti<Tz.
(§3) Three dose response parameters are calculated for each experimental agent. […] The drug concentration resulting in total growth inhibition (TGI) is calculated from Ti=Tz. […] Values are calculated for each of these three parameters if the level of activity is reached. However, if the effect is not reached or is exceeded, the value for that parameter is expressed as greater or less than the maximum or minimum concentration tested.

MDA-MB-435 = experiment: NCI screening panel, growth %; type: cell-based, human; conditions: Melanoma
Method: as §1, §2, §3

NCI-H322M = experiment: NCI screening panel, growth %; type: cell-based, human; conditions: NSCLC
Method: as §1, §2, §3

NCI-H226 = experiment: NCI screening panel, growth %; type: cell-based, human; conditions: NSCLC
Method: as §1, §2, §3

BT-549 = experiment: NCI screening panel, growth %; type: cell-based, human; conditions: Breast
Method: as §1, §2, §3

SF-268 = experiment: NCI screening panel, growth %; type: cell-based, human; conditions: CNS
Method: as §1, §2, §3

786-0 = experiment: NCI screening panel, growth %; type: cell-based, human; conditions: Renal
Method: as §1, §2, §3

CCRF-CEM = experiment: NCI screening panel, growth %; type: cell-based, human; conditions: Leukemia
Method: as §1, §2, §3

OVCAR-4 = experiment: NCI screening panel, growth %; type: cell-based, human; conditions: Ovarian
Method: as §1, §2, §3

SN12C = experiment: NCI screening panel, growth %; type: cell-based, human; conditions: Renal
Method: as §1, §2, §3

HL-60(TB) = experiment: NCI screening panel, growth %; type: cell-based, human; conditions: Leukemia
Method: as §1, §2, §3

RXF 393 = experiment: NCI screening panel, growth %; type: cell-based, human; conditions: Renal
Method: as §1, §2, §3

ACHN = experiment: NCI screening panel, growth %; type: cell-based, human; conditions: Renal
Method: as §1, §2, §3

SF-295 = experiment: NCI screening panel, growth %; type: cell-based, human; conditions: CNS
Method: as §1, §2, §3

NCI-H23 = experiment: NCI screening panel, growth %; type: cell-based, human; conditions: NSCLC
Method: as §1, §2, §3

Fc1ccc(Nc2ncnc3cc(OCCOC(F)F)c(OCCOC(F)F)cc23)c(F)c1Cl [Compound 2D•HCl, N-(3-chloro-2,4-difluoro-phenyl)-6,7-bis[2-(difluoromethoxy)ethoxy]quinazolin-4-amine]
recovery at 120 min, 5 μM (P-gp; Caco-2, pH 7.4, with none (verapamil 0 μM), Caco-2, Verapamil 0 μM, read-out: Recovery (%) AP-BL): 21.8% | recovery at 120 min, 5 μM (P-gp; Caco-2, pH 7.4, with none (verapamil 0 μM), Caco-2, Verapamil 0 μM, read-out: Recovery (%) BL-AP): 30.4% | recovery at 120 min, 5 μM (P-gp; Caco-2, pH 7.4, with verapamil 100 μM, Caco-2, Verapamil 100 μM, read-out: Recovery (%) AP-BL): 29.7% | recovery at 120 min, 5 μM (P-gp; Caco-2, pH 7.4, with verapamil 100 μM, Caco-2, Verapamil 100 μM, read-out: Recovery (%) BL-AP): 28.9% | Papp A→B at 120 min, 5 μM (P-gp; pH 7.4, Caco-2, Verapamil 0 μM): 40.2 nm/s | Papp B→A at 120 min, 5 μM (P-gp; pH 7.4, Caco-2, Verapamil 0 μM): 23.3 nm/s | efflux ratio at 120 min, 5 µM (P-gp; pH 7.4, Caco-2, Verapamil 0 μM): 0.58 | IC50 (HCC827): 0.017 µM | Growth % (MALME-3M): 73.73% | Growth % (MDA-MB-435): 56.24% | Growth % (NCI-H322M): −7.70% | Growth % (NCI-H226): 84.65% | Growth % (BT-549): 93.32% | Growth % (SF-268): 70.93% | Growth % (786-0): 60.48% | Growth % (CCRF-CEM): 75.53% | Growth % (OVCAR-4): 0.00% | Growth % (SN12C): 59.26% | Growth % (HL-60(TB)): 80.36% | Growth % (RXF 393): 37.95% | Growth % (ACHN): 17.88% | Growth % (SF-295): 76.73% | Growth % (NCI-H23): 78.31%
